Data from publication PMC5894102 (Journal of medicinal chemistry, 2017).
pIC50: −log10 of the molar value.

Assays:
[1] = in vitro; settings: human, A673 cells
[2] = tested on: CYP; settings: cited from earlier work
[3] = cited from earlier work
[4] = Mouse pharmacokinetic study; format: in vivo, CD1 mice; settings: male, CD1, mouse, plasma, iv, 2 mg/kg
[5] = target: human lactate dehydrogenase 5 (LDHA) (Homo sapiens, UniProt P00338); experiment: LDHA biochemical assay
[6] = target: LDHA (Homo sapiens, UniProt P00338); format: cell-based
[7] = tested on: MiaPaCa-2 cells; settings: 120 hours

NS(=O)(=O)c1ccc(Cc2cn(-c3nc(C(=O)O)cs3)nc2-c2ccc(F)c(F)c2)cc1 [Analog 42]
IC50 at 48 h [1]: > 57 µM

COc1ncc(-c2ccc3c(Nc4cc(Oc5cc(F)cc(F)c5)cc(C(=O)O)c4)c(S(=O)(=O)NC4CC4)cnc3c2)c(OC)n1 [Analog 2]
IC50 at 48 h [1]: > 57 µM

O=C(O)c1csc(-n2nc(-c3ccccc3)cc2C(F)(F)F)n1 [Analog 5]
CYP inhibition [2]: no appreciable CYP inhibition | stability in human plasma [3]: stable in human plasma

NS(=O)(=O)c1ccc(Cc2c(-c3cccc(-c4ccccc4)c3)nn(-c3nc(C(=O)O)cs3)c2C2CC2)cc1 [Analog 61]
half-life [4]: 51 min

O=C(O)c1csc(-n2nc(-c3ccccc3)cc2O)n1 [Analog 11]
improvement in potency on replacing CF3 by OH [5]: > 100 fold

O=C(O)c1csc(-n2nc(-c3ccc(F)cc3)cc2O)n1 [Analog 16]
pIC50 [5]: 6.82

NS(=O)(=O)c1ccc(Cc2c(-c3ccccc3)nn(-c3nc(C(=O)O)cs3)c2CC2CC2)cc1 [Analog 62]
CETSA: Cellular LDHA stabilization AUC (norm'd) [6]: 100.00

NS(=O)(=O)c1ccc(Cc2cn(-c3nc(C(=O)O)cs3)nc2-c2cccc(-c3ccccc3)c2)cc1 [Analog 44]
CETSA: Cellular LDHA stabilization Max stab. (norm'd) ([6]; A673 cells, Western blot band intensity scaled to maximum response of 44): 100.0

NS(=O)(=O)c1ccc(Cc2c(-c3cccc(-c4ccccc4)c3)nn(-c3nc(C(=O)O)cs3)c2CC2CC2)cc1 [Analog 63]
concentration with nearly complete arrest of cell growth [7]: 20 µM | lowest concentration with effects on cellular proliferation ([7]; dose-response): 250 nM
